Values after ≈ are worked out from the molar mass of the structure shown. Read-outs that look alike come from different tables or passages of the source.

The subject of data set [1] is A-549 (human lung adenocarcinoma). The experiment in a line: Growth inhibition of tumor cell line A-549 (Table 1). Format: cell-based. Conditions: for IC50: Homo sapiens, A549, 144 h, read-out: IC50, concentration inhibiting 50% of the growth of A-549.
Another data set concerns P-388 (murine leukemia). The experiment in a line: Growth inhibition of tumor cell line P-388 (Table 1). It counts as cell-based. To be noted: for IC50: Mus musculus, P388, 72 h, read-out: IC50, concentration inhibiting 50% of the growth of P-388.
For data set [2], the system named is KB-16 (human nasopharyngeal carcinoma). The experiment in a line: Growth inhibition of tumor cell line KB-16 (Table 1). Conditions: for IC50: Homo sapiens, KB16, 72 h, read-out: IC50, concentration inhibiting 50% of the growth of KB-16. It counts as cell-based.
The subject of data set [3] is HT-29 (human colon adenocarcinoma). The experiment in a line: Growth inhibition of tumor cell line HT-29 (Table 1). Format: cell-based. Conditions: for IC50: Homo sapiens, HT-29, 144 h, read-out: IC50, concentration inhibiting 50% of the growth of HT-29.
A further data set concerns murine P-388 cells. To be noted: Sakai et al., J Am Chem Soc 1986; cited from earlier work.
[4] abbreviates: 6 day drug exposure, columns A/B = scaffold type.
The mark [5] stands for this setting: 3 day drug exposure, columns A/B = scaffold type.

Turning to `CN(C)c1ccc(C2=NCCc3c2[nH]c2ccccc32)cc1` [Compound 20, 1-(4′-Dimethylaminophenyl)-3,4-dihydro-β-carboline], the IC50 in data set [1] (setting [4]) is 50 µg/mL (≈ 173 µM); in the data set on P-388 (murine leukemia) (setting [5]) it was 2.9 µg/mL (≈ 10 µM); in data set [2] (setting [5]) it was 4.8 µg/mL (≈ 16.6 µM); in data set [3] (setting [4]), 3 µg/mL (≈ 10.4 µM).
Taken in the same sequence, the figures for `CC(=O)O[C@H]1C(=O)[C@@]2(C)[C@H]([C@H](OC(=O)c3ccccc3)[C@]3(O)C[C@H](OC(=O)[C@H](O)[C@@H](NC(=O)c4ccccc4)c4ccccc4)C(C)=C1C3(C)C)[C@]1(OC(C)=O)CO[C@@H]1C[C@@H]2O` [Compound 30, paclitaxel, reference compound] were < 0.001 µg/mL, < 0.001 µg/mL, < 0.001 µg/mL and < 0.001 µg/mL.
On to `O[C@]12C=C(c3nccc4c3[nH]c3ccccc34)[C@@H]3CCN(CCCC/C=C\CC1)C[C@@]31C[C@@H]3/C=C\CCCCN3[C@@H]12` [Compound 3, manzamine A, reference compound], for which the “cytotoxicity against murine P-388 cells” value with murine P-388 cells was 0.07 µg/mL. The IC50 in data set [1] was 0.03 µg/mL (≈ 0.0547 µM); with P-388 (murine leukemia) it was 0.07 µg/mL (≈ 0.128 µM); in data set [2], < 0.001 µg/mL; in data set [3], 0.1 µg/mL (≈ 0.182 µM).
On to `COc1cc(OC)cc(C2=NCCc3c2[nH]c2ccccc32)c1` [Compound 25, 1-(3′,5′-Dimethoxyphenyl)-3,4-dihydro-β-carboline], for which the IC50 was 0.6 µg/mL (≈ 1.96 µM) in data set [1] (setting [4]), 0.4 µg/mL (≈ 1.31 µM) with P-388 (murine leukemia) (setting [5]), 1 µg/mL (≈ 3.26 µM) in data set [2] (setting [5]) and 0.6 µg/mL (≈ 1.96 µM) in data set [3] (setting [4]).
Consider `COc1cc(C2=NCCc3c2[nH]c2ccccc32)cc(OC)c1OC` [Compound 26, 1-(3′,4′,5′-Trimethoxyphenyl)-3,4-dihydro-β-carboline], for which the IC50 in data set [1] (setting [4]) was determined as 0.5 µg/mL (≈ 1.49 µM); in the data set on P-388 (murine leukemia) (setting [5]) it was 1.2 µg/mL (≈ 3.57 µM); in data set [2] (setting [5]), 1.4 µg/mL (≈ 4.16 µM); in data set [3] (setting [4]), 0.7 µg/mL (≈ 2.08 µM).
For `c1ccc2c(c1)Cc1cc(C3NCCc4c3[nH]c3ccccc43)ccc1-2` (stereo not drawn) [Compound 15, 1-(2′-Fluorenyl)-1,2,3,4-tetrahydro-β-carboline], the “IC50, concentration inhibiting 50% of the growth of A-549” value in data set [1] (setting [4]) was 0.6 µg/mL. The “IC50, concentration inhibiting 50% of the growth of P-388” value with P-388 (murine leukemia) (setting [5]) worked out at 0.1 µg/mL. Also, the “IC50, concentration inhibiting 50% of the growth of KB-16” value in data set [2] (setting [5]) amounted to 0.4 µg/mL. Moreover, the “IC50, concentration inhibiting 50% of the growth of HT-29” value in data set [3] (setting [4]) was 0.5 µg/mL.
Consider `CN(C)c1ccc(C2NCCc3c2[nH]c2ccccc32)cc1` (stereo not drawn) [Compound 7, 1-(4′-Dimethylaminophenyl)-1,2,3,4-tetrahydro-β-carboline], for which the IC50 in data set [1] (setting [4]) amounted to 1.6 µg/mL (≈ 5.49 µM); in the data set with P-388 (murine leukemia) (setting [5]), 2.2 µg/mL (≈ 7.55 µM); in data set [2] (setting [5]), 1.7 µg/mL (≈ 5.83 µM); in data set [3] (setting [4]) it was 0.7 µg/mL (≈ 2.4 µM).
As for `CCN(CC)c1ccc(C2NCCc3c2[nH]c2ccccc32)cc1` (stereo not drawn) [Compound 8, 1-(4′-N-Diethylaminophenyl)-1,2,3,4-tetrahydro-β-carboline], the “IC50, concentration inhibiting 50% of the growth of A-549” value in data set [1] (setting [4]) amounted to 1.1 µg/mL. The “IC50, concentration inhibiting 50% of the growth of P-388” value in the data set on P-388 (murine leukemia) (setting [5]) stood at 0.07 µg/mL. The “IC50, concentration inhibiting 50% of the growth of KB-16” value in data set [2] (setting [5]) came out at 0.2 µg/mL. Besides, the “IC50, concentration inhibiting 50% of the growth of HT-29” value in data set [3] (setting [4]) was 1.1 µg/mL.
`COc1ccc(C2NCCc3c2[nH]c2ccccc32)cc1OC` (stereo not drawn) [Compound 10, 1-(3′,4′-Dimethoxyphenyl)-1,2,3,4-tetrahydro-β-carboline]: the IC50 is > 50 µg/mL in data set [1] (setting [4]), 2.8 µg/mL (≈ 9.08 µM) in the data set with P-388 (murine leukemia) (setting [5]), > 50 µg/mL in data set [2] (setting [5]) and > 50 µg/mL in data set [3] (setting [4]).
As for `COc1ccc(OC)c(C2NCCc3c2[nH]c2ccccc32)c1` (stereo not drawn) [Compound 11, 1-(2′,5′-Dimethoxyphenyl)-1,2,3,4-tetrahydro-β-carboline], the IC50 stood at 2 µg/mL (≈ 6.49 µM) in data set [1] (setting [4]), 2.6 µg/mL (≈ 8.43 µM) with P-388 (murine leukemia) (setting [5]), 3.7 µg/mL (≈ 12 µM) in data set [2] (setting [5]) and 2.2 µg/mL (≈ 7.13 µM) in data set [3] (setting [4]).
For `COc1cc(OC)cc(C2NCCc3c2[nH]c2ccccc32)c1` (stereo not drawn) [Compound 12, 1-(3′,5′-Dimethoxyphenyl)-1,2,3,4-tetrahydro-β-carboline] the same measures were 0.6 µg/mL (≈ 1.95 µM), 0.2 µg/mL (≈ 0.649 µM), 1.4 µg/mL (≈ 4.54 µM) and 0.4 µg/mL (≈ 1.3 µM).
As for `CCn1c2ccccc2c2cc(C3NCCc4c3[nH]c3ccccc43)ccc21` (stereo not drawn) [Compound 16, 1-(9′-Ethyl-3′-carbazole)-1,2,3,4-tetrahydro-β-carboline], the “IC50, concentration inhibiting 50% of the growth of A-549” value in data set [1] (setting [4]) was found to be 0.8 µg/mL. In the data set on P-388 (murine leukemia) (setting [5]), the “IC50, concentration inhibiting 50% of the growth of P-388” value turned out to be 0.7 µg/mL. For the same molecule, in data set [2] (setting [5]), the “IC50, concentration inhibiting 50% of the growth of KB-16” value was determined as 0.8 µg/mL. Further, the “IC50, concentration inhibiting 50% of the growth of HT-29” value in data set [3] (setting [4]) was 0.5 µg/mL.
Regarding `CCN(CC)c1ccc(C2=NCCc3c2[nH]c2ccccc32)cc1` [Compound 21, 1-(4′-Diethylaminophenyl)-3,4-dihydro-β-carboline], the IC50 in data set [1] (setting [4]) was 1.8 µg/mL (≈ 5.67 µM); in the data set with P-388 (murine leukemia) (setting [5]) it was 0.7 µg/mL (≈ 2.21 µM); in data set [2] (setting [5]), 0.3 µg/mL (≈ 0.945 µM); in data set [3] (setting [4]) it was 1.3 µg/mL (≈ 4.1 µM).
Taken in the same sequence, the figures for `COc1ccc(C2=NCCc3c2[nH]c2ccccc32)cc1OC` [Compound 23, 1-(3′,4′-Dimethoxyphenyl)-3,4-dihydro-β-carboline] were 12 µg/mL (≈ 39.2 µM), 2.7 µg/mL (≈ 8.81 µM), 15 µg/mL (≈ 49 µM) and 2.7 µg/mL (≈ 8.81 µM).
With `COc1ccc(C2NCCc3c2[nH]c2ccccc32)c(OC)c1` (stereo not drawn) [Compound 9, 1-(2′,4′-Dimethoxyphenyl)-1,2,3,4-tetrahydro-β-carboline], the IC50 in data set [1] (setting [4]) came out at 1.1 µg/mL (≈ 3.57 µM); in the data set with P-388 (murine leukemia) (setting [5]), 0.6 µg/mL (≈ 1.95 µM); in data set [2] (setting [5]), 0.7 µg/mL (≈ 2.27 µM); in data set [3] (setting [4]) it was 1.1 µg/mL (≈ 3.57 µM).
`Brc1ccc(C2NCCc3c2[nH]c2ccccc32)cc1` (stereo not drawn) [Compound 5, 1-(4′-Bromophenyl)-1,2,3,4-tetrahydro-β-carboline]: the IC50 in data set [1] (setting [4]) is 3 µg/mL (≈ 9.17 µM); with P-388 (murine leukemia) (setting [5]), 1 µg/mL (≈ 3.06 µM); in data set [2] (setting [5]), 2.1 µg/mL (≈ 6.42 µM); in data set [3] (setting [4]), 1.1 µg/mL (≈ 3.36 µM).
Taken in the same sequence, the figures for `COc1cc(C2NCCc3c2[nH]c2ccccc32)cc(OC)c1OC` (stereo not drawn) [Compound 13, 1-(3′,4′,5′-Trimethoxyphenyl)-1,2,3,4-tetrahydro-β-carboline] were 2 µg/mL (≈ 5.91 µM), 1.2 µg/mL (≈ 3.55 µM), 8.3 µg/mL (≈ 24.5 µM) and 1.6 µg/mL (≈ 4.73 µM).
`COc1ccc(OC)c(C2=NCCc3c2[nH]c2ccccc32)c1` [Compound 24, 1-(2′,5′-Dimethoxyphenyl)-3,4-dihydro-β-carboline]: the IC50 in data set [1] (setting [4]) stood at 0.2 µg/mL (≈ 0.653 µM); with P-388 (murine leukemia) (setting [5]), 1.1 µg/mL (≈ 3.59 µM); in data set [2] (setting [5]) it was 0.7 µg/mL (≈ 2.28 µM); in data set [3] (setting [4]), 0.4 µg/mL (≈ 1.31 µM).
Taken in the same sequence, the figures for `O=[N+]([O-])c1ccc(C2NCCc3c2[nH]c2ccccc32)cc1` (stereo not drawn) [Compound 6, 1-(4′-Nitrophenyl)-1,2,3,4-tetrahydro-β-carboline] were 0.9 µg/mL (≈ 3.07 µM), 0.8 µg/mL (≈ 2.73 µM), 1.1 µg/mL (≈ 3.75 µM) and 1.5 µg/mL (≈ 5.11 µM).
Regarding “1-(2′-Fluorenyl)-3,4-dihydro-β-carboline [Compound 28]”, the “IC50, concentration inhibiting 50% of the growth of A-549” value in data set [1] (setting [4]) amounted to 0.6 µg/mL. In addition, the “IC50, concentration inhibiting 50% of the growth of P-388” value in the data set with P-388 (murine leukemia) (setting [5]) worked out at 0.1 µg/mL. For the same molecule, the “IC50, concentration inhibiting 50% of the growth of KB-16” value in data set [2] (setting [5]) was found to be 1.4 µg/mL. In addition, in data set [3] (setting [4]), the “IC50, concentration inhibiting 50% of the growth of HT-29” value was determined as 0.7 µg/mL.
For `O=[N+]([O-])c1cc(C2NCCc3c2[nH]c2ccccc32)cc2c1OCO2` (stereo not drawn) [Compound 14, 1-(3′-Nitroz4′-Benzo-1″,3″-dioxole)-1,2,3,4-tetrahydro-β-carboline] the same measures were 1.7 µg/mL, 0.3 µg/mL, 6.0 µg/mL and 1.4 µg/mL.
Regarding “1-(3′-Nitro-4′-Benzo-1″,3″-dioxole)-3,4-dihydro-β-carboline [Compound 27]”, the “IC50, concentration inhibiting 50% of the growth of A-549” value in data set [1] (setting [4]) was determined as 0.6 µg/mL. In the data set on P-388 (murine leukemia) (setting [5]), the “IC50, concentration inhibiting 50% of the growth of P-388” value was determined as 0.3 µg/mL. Moreover, in data set [2] (setting [5]), the “IC50, concentration inhibiting 50% of the growth of KB-16” value came to 0.8 µg/mL. In addition, in data set [3] (setting [4]), the “IC50, concentration inhibiting 50% of the growth of HT-29” value was 1.0 µg/mL.
As to `Clc1ccc(C2NCCc3c2[nH]c2ccccc32)cc1` (stereo not drawn) [Compound 4, 1-(4′-Chlorophenyl)-1,2,3,4-tetrahydro-β-carboline], the IC50 was found to be 0.6 µg/mL (≈ 2.12 µM) in data set [1] (setting [4]), 0.2 µg/mL (≈ 0.707 µM) in the data set with P-388 (murine leukemia) (setting [5]), 0.7 µg/mL (≈ 2.48 µM) in data set [2] (setting [5]) and 0.9 µg/mL (≈ 3.18 µM) in data set [3] (setting [4]).
Taken in the same sequence, the figures for `COc1ccc(C2=NCCc3c2[nH]c2ccccc32)c(OC)c1` [Compound 22, 1-(2′,4′-Dimethoxyphenyl)-3,4-dihydro-β-carboline] were 0.5 µg/mL (≈ 1.63 µM), 0.6 µg/mL (≈ 1.96 µM), 2.7 µg/mL (≈ 8.81 µM) and 0.5 µg/mL (≈ 1.63 µM).

The values are drawn from patent US6720331B2, “1-substituted 1,2,3,4-tetrahydro-β-carboline and 3,4-dihydro-β-carboline and analogs as antitumor agents” (National Sun Yat-sen University, priority 2001, dated 2004).
